# Where “and” joins values, the source holds several entries; their conditions need not be identical. Identical values can stand only once. Like-named read-outs stand apart in the source and are kept apart here.
# What was measured:
# CYP2D6 = CYP2D6 (Homo sapiens, UniProt P10635); assay: Metabolism of metaxalone by expressed recombinant human CYP2D6 at 5 or 20 pmol (Example 4); conditions: for percent turnover / % Turnover Mean / [metaxalone] Mean / % Turnover % / [metaxalone]: 60 min; for % Turnover % / [metaxalone]: single replicates, listed as Metaxalone
# Procedure: For CYP2C9 and CYP2D6, SUPERSOMES singly-expressing different allelic variants of the cytochrome p450 isozyme were commercially available. For each of CYP2C9 and CYP2D6, only the *1 allele was tested in these experiments. […]
# CYP2A6 = biological target: T1, CYP2A6 (Homo sapiens, UniProt P11509); assay: Metabolism of metaxalone by expressed recombinant human CYP2A6 at 5 or 20 pmol (Example 4); conditions: for % Turnover Mean / [metaxalone] Mean / % Turnover % / [metaxalone]: 60 min; for % Turnover % / [metaxalone]: single replicates
# T1 sequence (P11509 1-494): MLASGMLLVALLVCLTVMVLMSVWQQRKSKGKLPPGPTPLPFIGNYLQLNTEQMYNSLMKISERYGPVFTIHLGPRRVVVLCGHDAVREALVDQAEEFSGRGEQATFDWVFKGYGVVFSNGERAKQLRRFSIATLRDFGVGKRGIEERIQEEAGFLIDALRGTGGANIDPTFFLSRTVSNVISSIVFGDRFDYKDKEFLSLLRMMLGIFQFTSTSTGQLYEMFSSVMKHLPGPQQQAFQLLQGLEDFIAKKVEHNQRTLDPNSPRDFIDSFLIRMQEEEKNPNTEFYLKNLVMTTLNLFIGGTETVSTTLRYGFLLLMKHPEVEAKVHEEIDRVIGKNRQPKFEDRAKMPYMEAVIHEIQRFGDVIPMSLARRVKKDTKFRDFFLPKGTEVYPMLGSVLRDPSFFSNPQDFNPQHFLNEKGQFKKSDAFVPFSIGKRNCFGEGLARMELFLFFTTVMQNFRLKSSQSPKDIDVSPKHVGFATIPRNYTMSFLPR
# CYP1A2 = biological target: T2, CYP1A2 (Homo sapiens, UniProt P05177); conditions: both, pH 7.4; for Mean Conc.: 60 min; for % Turnover Mean: microsomes, 1 h
# T2 sequence (P05177 1-516): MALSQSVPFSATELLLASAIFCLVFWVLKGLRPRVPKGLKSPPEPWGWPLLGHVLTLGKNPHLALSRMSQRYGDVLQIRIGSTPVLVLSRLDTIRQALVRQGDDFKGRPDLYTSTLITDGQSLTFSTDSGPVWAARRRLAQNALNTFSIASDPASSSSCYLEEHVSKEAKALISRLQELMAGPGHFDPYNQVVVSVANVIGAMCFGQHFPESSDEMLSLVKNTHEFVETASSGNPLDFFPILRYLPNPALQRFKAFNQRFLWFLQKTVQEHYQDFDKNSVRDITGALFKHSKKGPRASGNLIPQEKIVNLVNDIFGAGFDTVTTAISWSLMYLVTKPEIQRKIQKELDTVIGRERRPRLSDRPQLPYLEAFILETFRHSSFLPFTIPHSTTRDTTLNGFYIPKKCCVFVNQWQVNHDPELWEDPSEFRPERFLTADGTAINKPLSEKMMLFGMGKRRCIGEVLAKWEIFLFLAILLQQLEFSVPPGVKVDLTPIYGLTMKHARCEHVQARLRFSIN
# Procedure: Human liver microsomes pooled from 15 individuals (male and female) (Pool HMMC-PL020; CellzDirect, Inc., In Vitro Products and Services Division) were used in some experiments of this study.
# % Turnover=100−{[TA(final)]/[mean of TA(0 min)]}×100,
# % Inhibition of Turnover=100{1−([TA(0 min)]−[TA(final-inhibitor)])/([TA(0 min)]−[TA(final-no inhibitor)])}.
# The inhibitors or vehicle control were incubated with the pooled human liver microsomes (1 mg/mL) and NADPH (1 mM) in 0.1 M phosphate buffer, pH 7.4. […] Incubations were conducted in triplicate and terminated by addition of organic solvent. Samples were extracted and analyzed by LC-MS/MS as described above.
# CYP3A4 = CYP3A4 (Homo sapiens, UniProt P08684); conditions: for Percent of VC / Specific Activity Mean ± SD: human, 10 min
# Procedure: All other incubations were for 30 minutes.
# (§1) Four replicates were performed.
# as §1
# Two replicates were performed.
# CYP2C19 [1] = biological target: T3, CYP2C19 (Homo sapiens, UniProt P33261); assay: Metabolism of metaxalone by expressed recombinant human CYP2C19 (Example 1); conditions: for Metaxalone Present Adjusted Individual / Metaxalone Present Adjusted Mean ± SD / Metaxalone Present Raw / Percent of Metabolic Negative Control Individual / Percent of Metabolic Negative Control Mean ± SD: 36 min;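 for all read-outs here: microsomes with expressed CYP2C19 (10 pmol P450) in Tris buffer with 1% methanol, reaction started by an NADPH regenerating system after 5 min preincubation, 0.5 mL volume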
# Procedure: Commercially available microsomes from baculovirus-infected insect cells containing singly-expressed recombinant wild-type (*1 allele) human CYP enzymes and cDNA-expressed human cytochrome p450 oxidoreductase [BD SUPERSOMES Enzymes; BD Biosciences Discovery Labware (Woburn, Mass.)] were used.
# After a 5-minute pre-incubation, an NADPH regenerating system (NRS) was added to the incubation mixtures to initiate reactions, with a final incubation volume of 0.5 mL. Incubations were continued for 30 minutes, and then terminated, except for those for CYP2C19, which were incubated for 36 minutes prior to termination.
# Matrix controls were performed to determine the background signal from the matrix components (microsomes (10 pmol p450), 01N Tris buffer, NRS, and 1% methanol). […] After a 5-minute pre-incubation, 2% sodium bicarbonate solution was added to the incubation mixtures. Incubation was for 30 minutes at a final volume of 0.5 mL. Matrix and metabolic negative controls were terminated by adding an equal volume of methanol. […] Analysis of samples was subsequent to storage at −70° C.
# CYP2C19 [2] = biological target: T3, CYP2C19; assay: Metabolism of metaxalone by expressed recombinant human CYP2C19 at 5 or 20 pmol (Example 4); conditions: for percent turnover / % Turnover Mean / [metaxalone] Mean / % Turnover % / [metaxalone]: 60 min; for % Turnover % / [metaxalone]: single replicates, listed as Metaxalone
# [3] = 0.75 μM metaxalone, 5 pmol CYP450
# [4] = 0.75 μM metaxalone, 20 pmol CYP450
# [5] = 0.75 μM metaxalone, 20 pmol cyp
# [6] = 7.5 μM metaxalone, 5 pmol CYP450
# [7] = 7.5 μM metaxalone, 20 pmol CYP450
# [8] = 0.75 μM metaxalone, 5 pmol cyp, listed as Metaxalone
# [9] = 0.75 μM metaxalone, 20 pmol cyp, listed as Metaxalone
# [10] = 7.5 μM metaxalone, 5 pmol cyp, listed as Metaxalone
# [11] = 7.5 μM metaxalone, 20 pmol cyp, listed as Metaxalone
# T3 sequence (P33261 whole entry): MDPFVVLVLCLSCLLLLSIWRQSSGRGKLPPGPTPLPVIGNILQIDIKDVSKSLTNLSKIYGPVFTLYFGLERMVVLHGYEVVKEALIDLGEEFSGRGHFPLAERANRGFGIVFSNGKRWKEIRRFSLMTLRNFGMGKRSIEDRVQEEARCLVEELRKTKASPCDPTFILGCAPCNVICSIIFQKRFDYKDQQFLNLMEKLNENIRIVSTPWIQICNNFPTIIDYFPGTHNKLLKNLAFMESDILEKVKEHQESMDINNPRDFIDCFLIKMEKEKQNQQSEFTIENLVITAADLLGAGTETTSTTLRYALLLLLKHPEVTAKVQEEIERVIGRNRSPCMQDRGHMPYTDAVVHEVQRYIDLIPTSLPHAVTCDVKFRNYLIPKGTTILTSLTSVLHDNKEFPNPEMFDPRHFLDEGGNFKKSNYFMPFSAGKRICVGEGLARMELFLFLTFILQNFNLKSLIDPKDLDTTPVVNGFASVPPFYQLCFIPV
# CYP2D6, sequence (P10635 whole entry): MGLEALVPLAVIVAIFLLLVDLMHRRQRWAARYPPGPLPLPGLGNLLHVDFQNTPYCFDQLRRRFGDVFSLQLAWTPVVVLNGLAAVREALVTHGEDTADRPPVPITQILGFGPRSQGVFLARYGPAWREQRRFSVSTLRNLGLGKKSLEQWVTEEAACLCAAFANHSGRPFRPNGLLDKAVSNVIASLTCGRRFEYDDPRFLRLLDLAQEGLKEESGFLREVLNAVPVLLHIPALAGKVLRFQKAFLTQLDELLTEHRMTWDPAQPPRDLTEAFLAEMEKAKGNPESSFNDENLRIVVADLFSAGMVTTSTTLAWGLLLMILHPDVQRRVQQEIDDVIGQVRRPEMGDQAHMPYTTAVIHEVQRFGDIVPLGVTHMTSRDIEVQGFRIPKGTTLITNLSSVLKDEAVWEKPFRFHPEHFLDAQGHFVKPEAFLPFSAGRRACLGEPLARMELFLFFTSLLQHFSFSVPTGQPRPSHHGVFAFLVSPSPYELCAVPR
# CYP3A4, sequence (P08684 whole entry): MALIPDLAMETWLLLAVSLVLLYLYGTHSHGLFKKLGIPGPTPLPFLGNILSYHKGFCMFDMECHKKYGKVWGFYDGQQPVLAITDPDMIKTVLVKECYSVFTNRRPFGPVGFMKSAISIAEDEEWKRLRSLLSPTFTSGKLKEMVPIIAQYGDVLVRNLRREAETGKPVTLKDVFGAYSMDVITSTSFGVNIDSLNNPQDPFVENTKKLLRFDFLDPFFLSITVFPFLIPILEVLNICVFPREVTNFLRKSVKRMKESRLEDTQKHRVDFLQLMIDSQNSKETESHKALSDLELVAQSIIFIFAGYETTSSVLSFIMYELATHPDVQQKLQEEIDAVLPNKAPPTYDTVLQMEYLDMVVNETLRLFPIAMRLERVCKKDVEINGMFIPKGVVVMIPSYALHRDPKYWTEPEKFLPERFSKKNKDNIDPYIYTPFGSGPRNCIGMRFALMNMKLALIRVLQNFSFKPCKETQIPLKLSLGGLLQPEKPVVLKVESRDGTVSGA
smiles,measurement,setting,value
"Cc1cc(C)cc(OCC2CNC(=O)O2)c1 (stereo not drawn) [metaxalone, 5-[(3,5-dimethylphenoxy)methyl]-2-oxazolidinone]",percent turnover,CYP2D6; [3],9.9%
same,% Turnover Mean,"CYP2D6; 0.75 μM metaxalone, 5 pmol cyp",9.9%
same,[metaxalone] Mean,"CYP2D6; 0.75 μM metaxalone, 5 pmol cyp",0.642 µM
same,% Turnover %,"CYP2D6; 0.75 μM metaxalone, 5 pmol cyp",8.8% and 11.6% and 9.1%
same,[metaxalone],"CYP2D6; 0.75 μM metaxalone, 5 pmol cyp",0.649 µM and 0.629 µM and 0.647 µM
same,percent turnover,CYP2D6; [4],19.5%
same,% Turnover Mean,CYP2D6; [5],19.5%
same,[metaxalone] Mean,CYP2D6; [5],0.573 µM
same,% Turnover %,CYP2D6; [5],23.3% and 16.7% and 18.5%
same,[metaxalone],CYP2D6; [5],0.546 µM and 0.593 µM and 0.581 µM
same,percent turnover,CYP2D6; [6],12.6%
same,% Turnover Mean,"CYP2D6; 7.5 μM metaxalone, 5 pmol cyp",12.6%
same,[metaxalone] Mean,"CYP2D6; 7.5 μM metaxalone, 5 pmol cyp",6.74 µM
same,% Turnover %,"CYP2D6; 7.5 μM metaxalone, 5 pmol cyp",10.7% and 12.5% and 14.5%
same,[metaxalone],"CYP2D6; 7.5 μM metaxalone, 5 pmol cyp",6.89 µM and 6.75 µM and 6.60 µM
same,percent turnover,CYP2D6; [7],24.9%
same,% Turnover Mean,"CYP2D6; 7.5 μM metaxalone, 20 pmol cyp",24.9%
same,[metaxalone] Mean,"CYP2D6; 7.5 μM metaxalone, 20 pmol cyp",5.79 µM
same,% Turnover %,"CYP2D6; 7.5 μM metaxalone, 20 pmol cyp",23.9% and 23.5% and 27.3%
same,[metaxalone],"CYP2D6; 7.5 μM metaxalone, 20 pmol cyp",5.87 µM and 5.90 µM and 5.61 µM
same,Substrate,"CYP2D6; CYP isozyme 2D6, summary of studies",+
same,% Turnover Mean,"CYP2A6; 0.75 μM metaxalone, 5 pmol cyp",0.14%
same,[metaxalone] Mean,"CYP2A6; 0.75 μM metaxalone, 5 pmol cyp",0.790 µM
same,% Turnover %,"CYP2A6; 0.75 μM metaxalone, 5 pmol cyp",−4.1%
same,% Turnover %,CYP2A6; [8],1.8% and 2.8%
same,[metaxalone],CYP2A6; [8],0.777 µM and 0.824 µM and 0.769 µM
same,% Turnover Mean,CYP2A6; [5],0.91%
same,[metaxalone] Mean,CYP2A6; [5],0.784 µM
same,% Turnover %,CYP2A6; [5],−5.7%
same,% Turnover %,CYP2A6; [9],3.7% and 4.8%
same,[metaxalone],CYP2A6; [9],0.837 µM and 0.762 µM and 0.753 µM
same,% Turnover Mean,"CYP2A6; 7.5 μM metaxalone, 5 pmol cyp",3.7%
same,[metaxalone] Mean,"CYP2A6; 7.5 μM metaxalone, 5 pmol cyp",8.14 µM
same,% Turnover %,"CYP2A6; 7.5 μM metaxalone, 5 pmol cyp",−2.3%
same,% Turnover %,CYP2A6; [10],9.0% and 4.3%
same,[metaxalone],CYP2A6; [10],7.69 µM and 8.08 µM and 8.64 µM
same,% Turnover Mean,"CYP2A6; 7.5 μM metaxalone, 20 pmol cyp",−1.8%
same,[metaxalone] Mean,"CYP2A6; 7.5 μM metaxalone, 20 pmol cyp",8.59 µM
same,% Turnover %,CYP2A6; [11],−1.6% and 6.1% and −9.8%
same,[metaxalone],CYP2A6; [11],8.58 µM and 7.93 µM and 9.27 µM
same,Substrate,"CYP2A6; CYP isozyme 2A6, summary of studies",0
same,Mean Conc.,CYP1A2; 0.75 μM,0.797 µM
same,Mean Conc.,CYP1A2; 7.5 μM,8.11 µM
same,% Turnover Mean,CYP1A2; 0.75 μM,−3.29%
same,% Turnover Mean,CYP1A2; 7.5 μM,4.77%
same,Inhibitor,CYP3A4,+
same,Percent of VC,CYP3A4; 0.3 μM,87.1%
same,Specific Activity Mean ± SD,CYP3A4; 0.3 μM,517 ± 10.4 pmol/min/mg protein
same,Percent of VC,CYP3A4; 1 μM,88.1%
same,Specific Activity Mean ± SD,CYP3A4; 1 μM,523 ± 2.83 pmol/min/mg protein
same,Percent of VC,CYP3A4; 3 μM,90.0%
same,Specific Activity Mean ± SD,CYP3A4; 3 μM,534 ± 3.36 pmol/min/mg protein
same,Percent of VC,CYP3A4; 30 μM,85.2%
same,Specific Activity Mean ± SD,CYP3A4; 30 μM,506 ± 29.6 pmol/min/mg protein
same,Percent of VC,CYP3A4; 100 μM,80.3%
same,Specific Activity Mean ± SD,CYP3A4; 100 μM,477 ± 36.3 pmol/min/mg protein
same,mean disappearance of metaxalone,CYP2C19 [1]; 0.5 μM metaxalone,6.6%
same,Metaxalone Present Adjusted Individual,CYP2C19 [1]; metaxalone 0.5 μM,0.335 µM and 0.344 µM and 0.356 µM
same,Metaxalone Present Adjusted Mean ± SD,CYP2C19 [1]; metaxalone 0.5 μM,0.345 ± 0.0104 µM
same,Metaxalone Present Raw,CYP2C19 [1]; metaxalone 0.5 μM,0.1677 µM and 0.1718 µM and 0.1781 µM
same,Percent of Metabolic Negative Control Individual,CYP2C19 [1]; metaxalone 0.5 μM,90.8% and 93.0% and 96.4%
same,Percent of Metabolic Negative Control Mean ± SD,CYP2C19 [1]; metaxalone 0.5 μM,93.4 ± 2.82%
same,Metaxalone Present Adjusted Individual,CYP2C19 [1]; metaxalone 2.5 μM,1.34 μM (2×) and 1.35 μM
same,Metaxalone Present Adjusted Mean ± SD,CYP2C19 [1]; metaxalone 2.5 μM,1.34 ± 0.00561 µM
same,Metaxalone Present Raw,CYP2C19 [1]; metaxalone 2.5 μM,0.6722 µM and 0.6725 µM and 0.6675 µM
same,Percent of Metabolic Negative Control Individual,CYP2C19 [1]; metaxalone 2.5 μM,96.7% (2×) and 96.0%
same,Percent of Metabolic Negative Control Mean ± SD,CYP2C19 [1]; metaxalone 2.5 μM,96.5 ± 0.404%
same,Metaxalone Present Adjusted Individual,CYP2C19 [1]; metaxalone 25 μM,18.7 μM (2×) and 18.5 μM
same,Metaxalone Present Adjusted Mean ± SD,CYP2C19 [1]; metaxalone 25 μM,18.6 ± 0.120 µM
same,Metaxalone Present Raw,CYP2C19 [1]; metaxalone 25 μM,9.345 µM and 9.359 µM and 9.249 µM
same,Percent of Metabolic Negative Control Individual,CYP2C19 [1]; metaxalone 25 μM,92.9% and 93.0% and 91.9%
same,Percent of Metabolic Negative Control Mean ± SD,CYP2C19 [1]; metaxalone 25 μM,92.6 ± 0.597%
same,percent turnover,CYP2C19 [2]; [3],6.9%
same,% Turnover Mean,"CYP2C19 [2]; 0.75 μM metaxalone, 5 pmol cyp",6.9%
same,[metaxalone] Mean,"CYP2C19 [2]; 0.75 μM metaxalone, 5 pmol cyp",0.662 µM
same,% Turnover %,"CYP2C19 [2]; 0.75 μM metaxalone, 5 pmol cyp",2.2% and 7.6% and 11.0%
same,[metaxalone],"CYP2C19 [2]; 0.75 μM metaxalone, 5 pmol cyp",0.696 µM and 0.658 µM and 0.634 µM
same,percent turnover,CYP2C19 [2]; [4],12.5%
same,% Turnover Mean,CYP2C19 [2]; [5],12.5%
same,[metaxalone] Mean,CYP2C19 [2]; [5],0.623 µM
same,% Turnover %,CYP2C19 [2]; [5],7.4% and 13.3% and 16.9%
same,[metaxalone],CYP2C19 [2]; [5],0.659 µM and 0.618 µM and 0.591 µM
same,percent turnover,CYP2C19 [2]; [6],6.3%
same,% Turnover Mean,"CYP2C19 [2]; 7.5 μM metaxalone, 5 pmol cyp",6.3%
same,[metaxalone] Mean,"CYP2C19 [2]; 7.5 μM metaxalone, 5 pmol cyp",7.23 µM
same,% Turnover %,"CYP2C19 [2]; 7.5 μM metaxalone, 5 pmol cyp",0.25% and 7.1% and 11.6%
same,[metaxalone],"CYP2C19 [2]; 7.5 μM metaxalone, 5 pmol cyp",7.69 µM and 7.17 µM and 6.82 µM
same,percent turnover,CYP2C19 [2]; [7],18.7%
same,% Turnover Mean,"CYP2C19 [2]; 7.5 μM metaxalone, 20 pmol cyp",18.7%
same,[metaxalone] Mean,"CYP2C19 [2]; 7.5 μM metaxalone, 20 pmol cyp",6.27 µM
same,% Turnover %,"CYP2C19 [2]; 7.5 μM metaxalone, 20 pmol cyp",20.2% and 18.0% and 17.8%
same,[metaxalone],"CYP2C19 [2]; 7.5 μM metaxalone, 20 pmol cyp",6.16 µM and 6.32 µM and 6.34 µM
same,Substrate,"CYP2C19 [2]; CYP isozyme 2C19, summary of studies",+
